Measurements from article PMC8286817, “Identifying SARS-CoV-2 antiviral compounds by screening for small molecule inhibitors of Nsp14 RNA cap methyltransferase” (Biochemical Journal, 2021).
Where a name gives a salt, the structure may show the parent alone. Read-outs that look alike come from different tables or passages of the source. Peptide text beside a SMILES is read from it. * marks the point of attachment. Cbz = O=C(OCc1ccccc1)*

Columns and labels:
[1] = molecular target: T1, SARS-CoV-2 nsp14 guanine-N7 methyltransferase (Severe acute respiratory syndrome coronavirus 2, UniProt P0DTD1); assay: biochemical; assay type: biochemical; conditions: for Km: read-out: Km (Michaelis constant) of substrate for nsp14
[2] = molecular target: T1, SARS-CoV-2 nsp14 guanine-N7 methyltransferase; assay type: biochemical

Molecule | Z-Score in primary screen [2] | also measured
Nc1nc2c(ncn2[C@@H]2O[C@H](COP(=O)(O)OP(=O)(O)OP(=O)(O)OC[C@H]3O[C@@H](n4cnc5c(N)ncnc54)[C@H](O)[C@@H]3O)[C@@H](O)[C@H]2O)c(=O)[nH]1 [GpppA] |  | Km [1]: 114 ± 21 µM
CNCCc1ccc(O)c(O)c1.Cl [N-Methyldopamine hydrochloride] | 3.906 | 
C[C@@H]1CC[C@H]2[C@@H](C)C(=O)O[C@@H]3O[C@@]4(C)CC[C@@H]1[C@]32OO4 [Artemisisin] | 2.850 | 
Cc1c(C(=O)O)c(O)cc2c1C(=O)c1c(O)c([C@@H]3O[C@H](CO)[C@@H](O)[C@H](O)[C@H]3O)c(O)c(O)c1C2=O [Carminic acid] | 3.060 | 
CCCN1C[C@H](CSC)C[C@@H]2c3cccc4[nH]cc(c34)C[C@H]21 [Pergolide methanesulfonate] | 3.690 | 
Br.NC1CCc2cc(O)c(O)cc2C1 (stereo not shown) [6,7-ADTN hydrobromide] | 3.690 | 
COc1ccc2c(c1)[C@]13CCCC[C@@H]1[C@H](C2)N(C)CC3 [Dextromethorphan] | 3.036 | 
Nc1ccc(C(=O)O)cc1 [p-Aminobenzoic acid] | 2.479 | 
CNC[C@H](O)[C@@H](O)[C@H](O)[C@H](O)CO [Meglumine] | 3.529 | 
N#Cc1ccc(N2N=C3c4ccc(C(=O)O)cc4CC[C@@H]3[C@@H]2C2CCCC2)cc1Cl [PF-03882845] | 5.080 | 
Inauhzin | 3.833 | IC50 ([1]; read-out: Normalised HTRF50 (inhibition of nsp14 methyltransferase activity)): 23 µM
C[n+]1ccccc1CC(=O)c1ccc(Br)cc1.[I-] [S 24795] | 3.557 | 
Cl.NC1CCN(c2cccc(Cl)n2)CC1 [SR 57227A] | 4.099 | 
CCN1C[C@]2(C)CC[C@H](O)[C@]34C1[C@@H](C[C@H]23)[C@@]1(O)C[C@H](OC)[C@H]2C[C@@H]4[C@@H]1[C@H]2O [Karakoline] | 3.794 | 
Nc1ncnc2c1ncn2C1CCCO1 (stereo not shown) [SQ 22536] | 3.378 | 
Nc1nc(OCc2cc(Br)cs2)c2[nH]cnc2n1 [Lomeguatrib] | 2.697 | IC50 [1]: 59.8 µM
CC(Cc1ccc(O)cc1)NCC(O)c1cc(O)cc(O)c1 (stereo not shown) [Fenoterol hydrobromide] | 3.275 | 
CCC1(C)CC(=O)NC1=O (stereo not shown) [Ethosuximide] | 3.595 | 
C[C@H](N)C(=O)N1C[C@H](CCCB(O)O)[C@](N)(C(=O)O)C1 [CB-1158 (dihydrochloride)] | 4.540 | 
NC(N)=NCc1cccc(I)c1.NC(N)=NCc1cccc(I)c1.O=S(=O)(O)O [m-Iodobenzylguanidine hemisulfate] | 4.530 | 

Molecule | Z-Score in primary screen [2] | also measured
Bioymifi | 3.204 | 
C[C@]12CCC(=O)C=C1CC[C@@H]1[C@@H]2[C@@H](O)C[C@@]2(C)[C@H]1CC[C@]2(O)C(=O)CO [Hydrocortisone] | 4.062 | 
Cc1cncc(CN2CCC(=C3c4ccc(Cl)cc4CCc4cccnc43)CC2)c1.O=C(O)/C=C/C(=O)O [Rupatadine Fumarate] | 3.745 | 
CC(C)[C@H](NC(=O)OCc1ccccc1)C(=O)N[C@H](C=O)Cc1ccccc1 [MDL 28170] (Cbz-Val-Phe-aldehyde) | 3.310 | 
C1=C2CCCN[C@H]2[C@@H]2C[C@H]1[C@H]1CCCCN1C2 [Aloperine] | 6.366 | 
COc1ccc(CCNC[C@H](O)c2ccc(O)cc2)cc1OC [R(-)-Denopamine] | 5.027 | 
CC(C[N+](C)(C)C)OC(N)=O (stereo not drawn) [Carbamyl-beta-methylcholine] | 3.385 | 
Nc1ncnc2c1ncn2[C@@H]1O[C@H](C[C@@H](N)CC[C@H](N)C(=O)O)[C@@H](O)[C@H]1O [sinefungin] |  | Inhibition of nsp14 activity (HTRF signal) [1]: inhibited nsp14 activity in a dose-dependent manner
O=c1c(O)c(-c2cc(O)c(O)c(O)c2)oc2cc(O)cc(O)c12 [Myricetin] | 6.539 | 
c1ccc2c(c1)N=C(N1CCNCC1)c1ccccc1N2 [DREADD agonist 21] | 3.333 | 
O=C(CCCN1CCC(O)(c2cccc(C(F)(F)F)c2)CC1)c1ccc(F)cc1 [Trifluperidol] | 5.671 | IC50 [1]: 12.9 µM
CC(C)(C)c1cc(C=C(C#N)C#N)cc(C(C)(C)C)c1O [Tyrphostin A9] | 3.261 | 
O=c1c2ccccc2[se]n1-c1ccccc1 [Ebselen] | 5.010 | 
CCCCCCCCCCCCCC(=O)O[C@@H]1[C@@H](C)[C@@]2(O)[C@@H](C=C(CO)C[C@]3(O)C(=O)C(C)=C[C@@H]23)[C@@H]2C(C)(C)[C@]12OC(C)=O [Phorbol 12-myristate 13-acetate] | 7.036 | 
COc1cc2c(cc1OC)CC(=O)N(CCCN(C)C[C@H]1Cc3cc(OC)c(OC)cc31)CC2 [Ivabradine] | 2.786 | 
c1ccc(CNc2nc(NCc3ccccc3)c3ccccc3n2)cc1 [DBeQ] | 4.776 | 
C[C@@H]1O[C@H](C[N+](C)(C)C)C[C@H]1O.[Cl-] (racemic) [(±)-Muscarine chloride] | 3.736 | 
COc1ccc(C2=N[C@H](c3ccc(Cl)cc3)[C@H](c3ccc(Cl)cc3)N2C(=O)N2CCNC(=O)C2)c(OC(C)C)c1 [Nutlin (3b)] | 4.552 | 
Cl.Cl.Cl.Ic1ccc(N2CCN(Cc3c[nH]c4ncccc34)CC2)cc1 [L-750,667 trihydrochloride] | 3.788 | 
CNCCCN1c2ccccc2CCc2ccccc21 [Desipramine hydrochloride] | 4.460 | 

Molecule | Z-Score in primary screen [2] | also measured
CCCCNc1cc(C(=O)O)cc(S(N)(=O)=O)c1Oc1ccccc1 [Bumetanide] | 3.246 | 
CCCCOc1ccc(CC(=O)NO)cc1 [Bufexamac] | 5.383 | 
CC(C)C(=O)Nc1ccc([N+](=O)[O-])c(C(F)(F)F)c1 [Flutamide] | 3.970 | 
Nc1nc2c(ncn2[C@@H]2O[C@H](COP(=O)(O)OP(=O)(O)OP(=O)(O)O)[C@@H](O)[C@H]2O)c(=O)[nH]1 [GTP] |  | Km [1]: 301 ± 110 µM
CC(N)c1cccc(Cl)c1Cl.Cl (racemic) [(±)-2,3-Dichloro-alpha-methylbenzylamine hydrochloride] | 3.186 | 
NC(=O)C(=O)O [Sodium Oxamate] | 3.379 | 
Brc1c(NC2=NCCN2)ccc2nccnc12 [UK 14,304] | 3.074 | 
CCCCN1CCCCC1C(=O)Nc1c(C)cccc1C (stereo not shown) [Bupivacaine] | 3.673 | 
CC(COc1ccc(/C=C/c2ccccc2)cc1)[N+](C)(C)C.[I-] (stereo not drawn) [N,N,N-trimethyl-1-(4-trans-stilbenoxy)-2-propylammonium iodide] | 3.028 | 
C[N+]1(C)CCC[C@H]1C(=O)[O-].Cl [Stachydine hydrochloride] | 2.622 | 
CCC(Sc1nnc2c(n1)[nH]c1ccccc12)C(=O)N1c2ccccc2Sc2ccccc21 (stereo not shown) [10-[2-(5H-[1,2,4]triazino[5,6-b]indol-3-ylsulfanyl)butanoyl]-10H-phenothiazine] | 5.999 | 
CCCCC[C@H](O)/C=C/C=C\C/C=C\C=C\[C@@H](O)CCCC(=O)O [5(S),15(S)-DIHETE] | 3.436 | 
CC1(C)CNc2cc(NC(=O)c3cccnc3NCc3ccncc3)ccc21 [Motesanib] | 3.875 | 
O=C(O)CCCCCCC(=O)O [Octanedioic acid] | 3.256 | 
CN1CCc2cc(Cl)c(O)cc2[C@@H](c2ccccc2)C1.Cl [R(+)-SCH-23390 hydrochloride] | 3.847 | 
O=C1NC(=O)C(c2ccccc2)(c2ccccc2)N1 [Phenytoin sodium] | 3.651 | 
CCN(CC)CC.Nc1ncnc2c1ncn2[C@@H]1O[C@@H]2COP(O)(=S)O[C@H]2[C@H]1O (stereo partly shown) [Sp-cAMPS triethylamine] | 3.048 | 
CCn1nc(C(=O)O)c(=O)c2cc3c(cc21)OCO3 [Cinoxacin] | 3.126 | 
